The text below walks through data of US20160193131A1, “METHOD FOR REDUCING SURFACE FREE ENERGY AND COMPOSITION HAVING REDUCED SURFACE FREE ENERGY” (KANEKA CORPORATION, priority 2013, published 2016).

Format in all cases: physicochemical
A short description of series [1]: Surface tension measurement at 25° C. (DY-500). The following applies: for surface tension reducing ability: 2 mass % in 20 vol % ethanol aqueous solution. As to the method:
Then, an experiment for confirmation of effect of reducing surface free energy by SFNa in organic solvent was carried out. Specifically, SFNa and diethylene glycol (10 mL) was added in a test tube so that SFNa concentration became 2 mass % similarly to the above-described Example 1. The mixture was stirred using a vortex mixer for 3 minutes. The dispersion was transferred to a petri dish and left to stand. The surface tension was measured at 25° C. using a high function surface tension measuring device (“DY-500”, manufactured by Kyowa Interface Science Co., Ltd.). In addition, the surface tensions of diethylene glycol only and 2 mass % diethylene glycol solution of sodium dodecyl sulfate, i.e. “SDS”, were similarly measured as control.
An experiment for confirmation of effect of reducing surface free energy by SFNa in a mixed solvent of water and a water-miscible solvent was also carried out. Specifically, SFNa and 20 vol % ethanol aqueous solution (10 mL) was added in a test tube so that SFNa concentration became 2 mass % similarly to the above-described Example 1. The mixture was stirred using a vortex mixer for 3 minutes. In addition, 2 mass % SDS solution was obtained as control by dissolving SDS in 20 vol % ethanol aqueous solution.
In addition, the surface tension reducing ability of SFNa and SDS in 20 vol % ethanol aqueous solution was evaluated at 25° C. similarly to the above-described Example 2.
Furthermore, surface tension was measured similarly to the above-described Example 2 except that the organic solvent was changed from diethylene glycol to dimethylsulfoxide, i.e. DMSO.
An experiment for confirmation of effect of reducing surface free energy by SFNa in a mixed solvent which contained acetone as a water-miscible solvent was also carried out, since the secondary structure formation was confirmed in the above-described Example 5. Specifically, SFNa and 20 vol % or 50 vol % acetone aqueous solution (10 mL) were added in a test tube so that SFNa concentration became 1 mass % similarly to the above-described Example 1. The mixture was stirred using a vortex mixer for 3 minutes. In addition, 1 mass % SDS solution was obtained as control by dissolving SDS in 20 vol % or 50 vol % acetone aqueous solution. The dispersion was transferred to a petri dish and left to stand similarly to the above-described Example 2. The surface tension was measured at 25° C. using a high function surface tension measuring device (“DY-500”, manufactured by Kyowa Interface Science Co., Ltd.).

Series [2] is described as follows: Particle size distribution by dynamic light scattering (micelle formation). The note with it: DLS. As for the experimental part:
In a test tube, surfactin sodium salt (hereinafter, referred to as “SFNa”) and methanol (5 mL) or ethanol (5 mL) were added so that SFNa concentration became 2 mass %. The mixture was stirred using a vortex mixer for 3 minutes. A particle size distribution of the particles which were contained in each obtained dispersion was measured using a dynamic light scattering measuring device (product name: DLS-7000, manufactured by OTSUKA ELECTRON Co., Ltd.). In the measurement, Ar laser (λ=488 nm) was used as a light source and a scattering angle was adjusted to 90°. The result of the methanol dispersion is shown by FIG. 1 and the result of the ethanol dispersion is shown by FIG. 2.
First, an association behavior of SFNa was evaluated by a dynamic light scattering method as the above-described Example 1. As FIG. 4, a micelle having an average particle diameter of 44.8±7.7 nm was observed.

The nature of series [3]: Secondary structure formation by circular dichroism dispersion meter. As to the method:
Similarly to the above-described Example 1, SFNa and acetone (5 mL) was added in a test tube. The mixture was stirred using a vortex mixer for 3 minutes in order to prepare 0.1 mass %, 0.5 mass % or 1 mass % SFNa solution in acetone. Then, secondary structure formation of SFNa in the prepared acetone solutions was measured using a circular dichroism dispersion meter (“J-820”, manufactured by JASCO Corporation).
Similarly to the above-described Example 5, methanol (1 mL) and SFNa were measured off in a test tube, and the mixture was stirred using a vortex mixer for 3 minutes in order to prepare 0.01 to 1 mass % SFNa solutions in methanol. Then, secondary structure formation of SFNa in the prepared […] solutions was measured using a circular dichroism dispersion meter (“J-820”, manufactured by JASCO Corporation).
Similarly to the above-described Example 5, ethanol (1 mL) and SFNa were measured off in a test tube, and the mixture was stirred using a vortex mixer for 3 minutes in order to prepare 0.05 to 1 mass % SFNa solutions in ethanol. Then, secondary structure formation of SFNa in the prepared ethanol solutions was measured using a circular dichroism dispersion meter (“J-820”, manufactured by JASCO Corporation).
Similarly to the above-described Example 5, tetrahydrofuran (1 mL) and SFNa were measured off in a test tube, and the mixture was stirred using a vortex mixer for 3 minutes in order to prepare 0.5 mass % or 1 mass % SFNa solutions in tetrahydrofuran. Then, secondary structure formation of SFNa in the prepared tetrahydrofuran solutions was measured using a circular dichroism dispersion meter (“J-820”, manufactured by JASCO Corporation).

A short description of series [4]: Standing for one day at 25° C. and polarization microscope observation of deposits. As for the experimental part:
In addition, the above each dispersion was left to stand for one day at 25° C. […] The depositions were observed using a polarization microscope (“ECLIPSE E600”, manufactured by NIKON CORPORATION). The result is shown as FIG. 3. […] A lamellar liquid crystal may incorporate both of a hydrophilic substance and a lipophilic substance inside, since a lamellar liquid crystal has both of a hydrophilic part and a lipophilic part.

Setting [5] is: 1 mass % in 20 vol % acetone aqueous solution.
The mark [6] stands for this setting: 1 mass % in 50 vol % acetone aqueous solution.
[7] abbreviates: 2 mass % in 20 vol % ethanol aqueous solution.

As for `CCCCCCCCCCCCOS(=O)(=O)[O-].[Na+]` [SDS, sodium dodecyl sulfate, reference compound], the “surface tension reducing effect” value in series [1] (setting [5]) is recorded as “reduced the surface tension”; in series [1] (setting [6]), “could not reduce the surface tension”. Besides, the “surface tension reducing ability” value in series [1] is “could not reduce the surface tension”. Also, the Surface tension in series [1] (2 mass % in DMSO) is given as 43.4 mN/m; in series [1] (2 mass % in diethylene glycol), 44.5 mN/m. The micelle observation entry in series [2] (setting [7]) is “a micelle cannot be observed”.

Regarding surfactin sodium salt [SFNa], the “surface tension reducing effect” value was “clearly superior to SDS” in series [1] (setting [5]) and “the surface tension could be clearly reduced” in series [1] (setting [6]). For the same compound, in series [1], the “surface tension reducing ability” value is recorded as “could clearly reduce the surface tension”. Moreover, the Surface tension in series [1] (2 mass % in DMSO) amounted to 39.2 mN/m; in series [1] (2 mass % in diethylene glycol), 39.6 mN/m. In addition, the “secondary structure formation (CD, negative peak near 200 nm)” value in series [3] (0.01 to 1 mass % in methanol) is “forms secondary structure”; in series [3] (0.05 to 1 mass % in ethanol), “forms secondary structure”; in series [3] (0.1, 0.5 or 1 mass % in acetone), “forms secondary structure”; in series [3] (0.5 or 1 mass % in tetrahydrofuran) it was “forms secondary structure”. Besides, the “average particle diameter of micelle” value was 44.8±7.7 nm in series [2] (setting [7]), 956.8±286.5 nm in series [2] (2 mass % in ethanol) and 1035.1±230.7 nm in series [2] (2 mass % in methanol). Moreover, the results for the “appearance of dispersion after standing” value in series [4] (2 mass % ethanol dispersion) and in series [4] (2 mass % methanol dispersion) were “there were deposits” and “remained transparent”, respectively. Besides, the “polarization microscope observation of deposits” value in series [4] (2 mass % ethanol dispersion) is “a Maltese Cross image which is characteristic of lamellar liquid crystal was observed”.
